According to patent publication US9861647B2 (Prelief Inc., priority 2007, dated 2018):

Assays:
[1] = tested on: inflammatory cells in nasal lavage; assay: Nasal lavage cell counts and differentials after nasal ragweed challenge; assay type: in vivo, Beagle dogs
Method: Ragweed sensitized beagle dogs (n=5) with preexisiting nasal and airway allergic responses were utilized in the animal study described in this Example. Dogs served as their own control and initially were treated with vehicle (sterile water) and then rested for 5 weeks prior to receiving the test compound. […] Based on the aerosol testing only 1.6 mg/dog could be delivered by inhalation during a 15 minute exposure (20 mg/ml solution). In addition, each dog received twice daily an intranasal instillation of 30 mg (2×375 μl of 20 mg/ml in each nostril) given within 30 minutes after the end of the inhalation exposures.
FIG. 1 summarizes the study design for characterizing the effects of CGP on rhinitis symptoms in ragweed sensitized Beagle dogs. The baseline nasal cavity volume was first measured 3 days (day −3) before each of the vehicle and CGP treatments. The dogs were treated with vehicle or CGP (day 0) twice daily with the target dosage described above. […]
Total nasal cells were determined using an automatic cell counter. […] At least four hundred inflammatory cells (or less if applicable) were counted and the percentage of specific cell types determined for each animal (slides in duplicates, 200 cells per slide). […]
Changes in nasal cavity volume or mediator levels were assessed by two way analysis of variance (ANOVA) with Bonferroni post-test. […]

[2] = tested on: human subject having asthma; assay: Application of CGP composition to a human subject having asthma; assay type: in vivo
Excerpt: A CGP composition similar to that described in Example 3, containing about 2% (w/w) CGP, was used in this study. A second human subject, a person having a life history of asthma, participated in this study.
The subject intentionally stopped using Advair Diskus (steroid) for about 2 weeks. Their allergies to molds were triggered by a ‘musty’ indoor environment resulting from several rainy and humid days. The allergies in turn triggered their asthma. The subject had felt a slight reduction in their airflow capacity for a few days, but had withheld use of albuterol inhaler (asthma rescue medication) during the day and only used it for severe wake-ups during the night. The subject had to use albuterol inhaler for three contiguous nights prior to the night described below.
In that night, at about 8:30 PM, the subject was experiencing difficulty breathing and wheezing, which signaled the start of an asthma attack. At about 8:35 PM, the subject applied two sprays of the CGP composition into each nostril and one spray of the CGP composition into their mouth for inhalation. An average spray delivery contained about 200 mg of the composition. […] At about 8:52 PM, the subject did two additional oral inhalations of the composition. At about 8:55 PM, the subject noticed that their wheeze and tightness in chest were relieved about 80% or more. All nasal drips had been sniffed back in. At about 8:58 PM, the subject perceived a gradual improvement and experienced no labor in breathing. At about 9:05 PM, the subject felt better, but desired full relief and wanted to increase breathing capacity. They applied one inhalation of the composition into each nostril; paused to get full breath, then applied two deep oral inhalations of the composition at about 9:07 PM. At about 9:27 PM, the subject felt fine and substantially back to normal. At about 9:37 PM, the subject felt improved. At about 10:16 PM, the subject felt fully (100%) recovered. At about 11:00 PM, the subject felt fine, no worry, and went to bed. […] At about 8:00 AM the next day, the subject felt a little tightness in chest. Instead of using 2 puffs of albuterol to start the day as they normally did, the subject used the CGP composition. They applied two sprays of the composition into each nostril and two sprays of the composition into their mouth for inhalation.

nosebleeds = assay: Stanching nosebleeds at higher CGP levels; assay type: in vivo; details: higher levels tested, about 7.5% (w/w) or above

calcium glycerophosphate
levels of macrophages in nasal lavage ([1]; following treatment, not detectable following vehicle): negligible levels
number of inflammatory cells in the nasal lavage ([1]; pretreatment vs vehicle, Days 1 and 2 after nasal RW challenge): did tend to reduce the lung inflammatory cells compared to vehicle treatment, although none of the endpoints reached statistical significance
relief of tightness in chest next morning ([2]; about 8:00 AM next day, two sprays each nostril and two sprays into mouth instead of albuterol): felt relief and no need to use the albuterol inhaler
relief at start of an asthma attack ([2]; about 8:40 PM, 5 min after first sprays, composition about 2% (w/w) CGP, one subject): mild relief
wheeze and tightness in chest relieved ([2]; about 8:55 PM, after nasal sprays and oral inhalations from 8:35 PM, about 2% (w/w) CGP): ≥ 80%
subject felt recovered ([2]; about 10:16 PM, first application 8:35 PM, about 2% (w/w) CGP): 100%
night wake-up and inhaler use ([2]; night after the treated attack): no wake-up with shortness of breath and did not use inhaler during the night
stanching nosebleeds (nosebleeds): may help in stanching nosebleeds
